Where “and” joins values, the source holds several entries; their conditions need not be identical. Identical values can stand only once.
Conditions: 400 kPa, Liquid, Concentric cylinders viscometry

CN(CCO)CCO [N-methyldiethanolamine]
Conditions	viscosity
298.15 K	73.1 mPa·s
303.15 K	55.89 mPa·s
308.15 K	43.45 mPa·s
313.15 K	34.15 mPa·s
318.15 K	27.15 mPa·s
323.15 K	21.82 mPa·s
328.15 K	17.79 mPa·s
333.15 K	14.63 mPa·s
338.15 K	12.2 mPa·s
343.15 K	10.21 mPa·s
348.15 K	8.61 mPa·s and 8.6 mPa·s
353.15 K	7.31 mPa·s
358.15 K	6.28 mPa·s and 6.29 mPa·s
363.15 K	5.43 mPa·s
368.15 K	4.72 mPa·s
373.15 K	4.12 mPa·s

Reference: the NIST ThermoML archive (doi:10.1021/acs.jced.9b00021)
